Broadly, the IC50 is the concentration that gives 50% inhibition.

SMILES strings stand for the structures.

For this test, the target named is recombinant Human Phosphodiesterase B2 (PDE4B2) (Homo sapiens, UniProt Q07343). Description: Human Phosphodiesterase B2 Alpha Screen Assay. In kind it is biochemical. To be noted: recombinant human PDE4B2, cAMP substrate, 60 min at room temperature. The method, then: Human Phosphodiesterase B2 Alpha Screen Assay
Chain of recombinant Human Phosphodiesterase B2 (PDE4B2) (Q07343 1-564 isoform Q07343-2): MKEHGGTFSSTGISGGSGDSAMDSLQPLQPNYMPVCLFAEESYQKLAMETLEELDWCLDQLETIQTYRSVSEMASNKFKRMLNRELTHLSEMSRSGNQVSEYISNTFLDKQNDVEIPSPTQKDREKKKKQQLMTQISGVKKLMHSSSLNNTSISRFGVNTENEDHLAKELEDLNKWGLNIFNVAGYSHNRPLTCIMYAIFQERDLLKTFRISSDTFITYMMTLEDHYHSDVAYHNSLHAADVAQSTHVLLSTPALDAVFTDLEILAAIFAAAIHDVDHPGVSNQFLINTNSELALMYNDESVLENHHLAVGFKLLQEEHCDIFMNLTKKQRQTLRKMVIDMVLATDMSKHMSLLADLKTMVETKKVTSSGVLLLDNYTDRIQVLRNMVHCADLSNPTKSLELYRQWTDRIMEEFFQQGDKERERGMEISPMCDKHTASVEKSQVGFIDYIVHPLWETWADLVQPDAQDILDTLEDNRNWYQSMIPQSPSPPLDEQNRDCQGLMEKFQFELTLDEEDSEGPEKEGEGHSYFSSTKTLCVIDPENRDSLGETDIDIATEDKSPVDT
The assay uses recombinant Human Phosphodiesterase B2 (PDE4B2) produced in house (PrAZL0133), stored at −20° C. The substrate uses cAMP, part of the Alpha Screen cAMP kit (Perkin Elmer, Cat #6760625M), stored at 4° C. The Alpha Screen kit also includes biotinylated cAMP, acceptor and donor beads.
The assay additions were as follows: Test compounds and controls were added to white 384-well flat-bottom plates (Greiner, Cat #781075), 0.2 μl in 100% DMSO, followed by 10 μl PDE4B2 in reaction buffer. The reaction buffer constitution was: 50 mM Tris (pH 7.5), 8.3 mM MgCl2, 1.7 mM EGTA and 0.01% (w/v) Brij®35. The enzyme and the compounds were incubated at room temperature for 15 minutes. Then 10 μl cAMP in reaction buffer was added. The assay was stopped after 60 minutes incubation at room temperature by adding 10 μl acceptor beads in detection buffer with 40 mM EDTA. The detection buffer constitution was: 5 mM Tris (pH 7.5), 0.1% (w/v) BSA and 0.1% (v/v) Tween 20. This addition followed by an addition of 10 μl donor beads in detection buffer, with biotinylated cAMP. The plates were then incubated, dark at room temperature, for 5 hours followed by measurement on a Fusion™-α analyser. IC50 values (presented in Table 1) were determined using Xlfit curve fitting using model 205.
As to `CCc1nn(C2CCCC2)c2c1C(=O)NCC(c1ccccc1)=N2` [Example 1, 1-Cyclopentyl-3-ethyl-7-phenyl-5,6-dihydropyrazolo[3,4-e][1,4]diazepin-4(1H)-one], the IC50 came to 0.33 nM. `CCc1nn(C2CCCC2)c2c1C(=O)NCC(c1ccc(OC)cc1)=N2` [Example 2, 1-cyclopentyl-3-ethyl-7-(4-methoxyphenyl)-5,6-dihydropyrazolo[3,4-e][1,4]diazepin-4(1H)-one]: the IC50 turned out to be 0.98 nM. Consider `CCc1nn(-c2ccc(F)cc2)c2c1C(=O)NCC(c1ccccc1)=N2` [Example 3, 3-ethyl-1-(4-fluorophenyl)-7-phenyl-5,6-dihydropyrazolo[3,4-e][1,4]diazepin-4(1H)-one], for which the IC50 worked out at 6.1 nM. For `CCc1nn(-c2cccc([N+](=O)[O-])c2)c2c1C(=O)NCC(c1ccccc1)=N2` [Example 4, 3-ethyl-1-(3-nitrophenyl)-7-phenyl-5,6-dihydropyrazolo[3,4-e][1,4]diazepin-4(1H)-one], the IC50 was determined as 4.8 nM. For `CCc1nn(-c2ccc(S(C)(=O)=O)cc2)c2c1C(=O)NCC(c1ccccc1)=N2` [Example 5, 3-ethyl-1-[4-(methylsulfonyl)phenyl]-7-phenyl-5,6-dihydropyrazolo[3,4-e][1,4]diazepin-4(1H)-one], the IC50 came to 43 nM. On to `CCc1nn(-c2ccccc2)c2c1C(=O)NCC(c1ccccc1)=N2` [Example 6, 3-Ethyl-1,7-diphenyl-5,6-dihydropyrazolo[3,4-e][1,4]diazepin-4(1H)-one], for which the IC50 turned out to be 11 nM.

Consider `CCc1nn(C2CCCC2)c2c1C(=O)NCC(c1ccc(OC)c(OC)c1)=N2` [Example 7, 1-Cyclopentyl-7-(3,4-dimethoxyphenyl)-3-ethyl-5,6-dihydropyrazolo[3,4-e][1,4]diazepin-4(1H)-one], for which the half-inhibitory concentration (IC50) came out at 1.47 nM. Consider `CCc1nn(C2CCCC2)c2c1C(=O)NCC(c1ccc(Br)cc1)=N2` [Example 8, 7-(4-Bromophenyl)-1-cyclopentyl-3-ethyl-5,6-dihydropyrazolo[3,4-e][1,4]diazepin-4(1H)-one], for which the IC50 amounted to 0.84 nM. In the case of `CCc1nn(C2CCCC2)c2c1C(=O)NCC(c1ccc(C)cc1)=N2` [Example 9, 1-Cyclopentyl-3-ethyl-7-(4-methylphenyl)-5,6-dihydropyrazolo[3,4-e][1,4]diazepin-4(1H)-one], the IC50 is 0.61 nM.

With `CCc1nn(C2CCCC2)c2c1C(=O)NCC(c1ccccc1OC)=N2` [Example 10, 1-Cyclopentyl-3-ethyl-7-(2-methoxyphenyl)-5,6-dihydropyrazolo[3,4-e][1,4]diazepin-4(1H)-one], the IC50 was found to be 0.91 nM. In the case of `CCc1nn(C2CCCC2)c2c1C(=O)NCC(c1ccc(O)c(C(=O)OC)c1)=N2` [Example 11, Methyl 5-(1-cyclopentyl-3-ethyl-4-oxo-1,4,5,6-tetrahydropyrazolo[3,4-e][1,4]diazepin-7-yl)-2-hydroxybenzoate], the IC50 came out at 0.59 nM. As for `CCc1nn(C2CCCC2)c2c1C(=O)NCC(c1ccc(Cl)cc1)=N2` [Example 12, 7-(4-Chlorophenyl)-1-cyclopentyl-3-ethyl-5,6-dihydropyrazolo[3,4-e][1,4]diazepin-4(1H)-one], the IC50 was found to be 0.57 nM. For `CCc1nn(C2CCCC2)c2c1C(=O)NCC(c1ccc(F)c(F)c1)=N2` [Example 13, 7-(3,4-Difluorophenyl)-1-cyclopentyl-3-ethyl-5,6-dihydropyrazolo[3,4-e][1,4]diazepin-4(1H)-one] the value was 0.73 nM.

In the case of `CCc1nn(C2CCCC2)c2c1C(=O)NCC(c1cc(OC)ccc1OC)=N2` [Example 14, 1-Cyclopentyl-7-(2,5-dimethoxyphenyl)-3-ethyl-5,6-dihydropyrazolo[3,4-e][1,4]diazepin-4(1H)-one], the IC50 was found to be 0.5 nM. For the molecule `CCc1nn(C2CCCC2)c2c1C(=O)NCC(c1ccc(OCc3ccccc3)cc1)=N2` [Example 15, 7-[4-(Benzyloxy)phenyl]-1-cyclopentyl-3-ethyl-5,6-dihydropyrazolo[3,4-e][1,4]diazepin-4(1H)-one], the IC50 is 0.9 nM. Regarding `CCc1nn(C2CCCC2)c2c1C(=O)NCC(c1ccc3c(c1)OCCCO3)=N2` [Example 16, 1-Cyclopentyl-7-(3,4-dihydro-2H-1,5-benzodioxepin-7-yl)-3-ethyl-5,6-dihydropyrazolo[3,4-e][1,4]diazepin-4(1H)-one], the IC50 worked out at 0.43 nM. As to `CCc1nn(C2CCCC2)c2c1C(=O)NCC(c1ccco1)=N2` [Example 17, 1-Cyclopentyl-3-ethyl-7-(2-furyl)-5,6-dihydropyrazolo[3,4-e][1,4]diazepin-4(1H)-one], the IC50 was 2.16 nM.

Turning to `CCc1nn(C2CCCC2)c2c1C(=O)NCC(C(C)(C)C)=N2` [Example 18, 7-tert-Butyl-1-cyclopentyl-3-ethyl-5,6-dihydropyrazolo[3,4-e][1,4]diazepin-4(1H)-one], the IC50 is 0.53 nM.

Consider `CCc1nn(C2CCCC2)c2c1C(=O)NCC(c1cccc(OC)c1)=N2` [Example 19, 1-Cyclopentyl-3-ethyl-7-(3-methoxyphenyl)-5,6-dihydropyrazolo[3,4-e][1,4]diazepin-4(1H)-one], for which the IC50 worked out at 0.55 nM. For `CCc1nn(C2CCCC2)c2c1C(=O)NCC(CCC(=O)OC)=N2` [Example 20, Methyl 3-(1-cyclopentyl-3-ethyl-4-oxo-1,4,5,6-tetrahydropyrazolo[3,4-e][1,4]diazepin-7-yl)propanoate] the value was 28.7 nM; for `CCc1nn(C2CCCC2)c2c1C(=O)NCC(c1ccc(F)cc1)=N2` [Example 21, 1-Cyclopentyl-3-ethyl-7-(4-fluorophenyl)-5,6-dihydropyrazolo[3,4-e][1,4]diazepin-4(1H)-one], 1.05 nM; for `CCc1nn(C2CCCC2)c2c1C(=O)NCC(c1ccc(OC(F)(F)F)cc1)=N2` [Example 22, 1-Cyclopentyl-3-ethyl-7-[4-(trifluoromethoxy)phenyl]-5,6-dihydropyrazolo[3,4-e][1,4]diazepin-4(1H)-one], 4.16 nM.

In the case of `CCc1nn(C2CCCC2)c2c1C(=O)NCC(c1ccc(C#N)cc1)=N2` [Example 23, 4-(1-Cyclopentyl-3-ethyl-4-oxo-1,4,5,6-tetrahydropyrazolo[3,4-e][1,4]diazepin-7-yl)benzonitrile], the IC50 turned out to be 1.21 nM.

Turning to `CCc1nn(C2CCCC2)c2c1C(=O)NCC(c1ccc(S(C)(=O)=O)cc1)=N2` [Example 24, 1-Cyclopentyl-3-ethyl-7-[4-(methylsulfonyl)phenyl]-5,6-dihydropyrazolo[3,4-e][1,4]diazepin-4(1H)-one], the IC50 came to 3.92 nM. Turning to `CCc1nn(C2CCCC2)c2c1C(=O)NC(c1ccccc1)C(C)=N2` (stereo not drawn) [Example 25, 1-Cyclopentyl-3-ethyl-7-methyl-6-phenyl-5,6-dihydropyrazolo[3,4-e][1,4]diazepin-4(1H)-one], the concentration for half-maximal inhibition (IC50) came to 385 nM.

For `CCc1nn(C2CCCC2)c2c1C(=O)N(C)CC(c1ccccc1)=N2` [Example 26, 1-Cyclopentyl-3-ethyl-5-methyl-7-phenyl-5,6-dihydropyrazolo[3,4-e][1,4]diazepin-4(1H)-one], the IC50 came to 103 nM. `CCc1nn(C2CCCC2)c2c1C(=O)NCC(c1ccc(O)c(C(=O)O)c1)=N2` [Example 27, 5-(1-Cyclopentyl-3-ethyl-4-oxo-1,4,5,6-tetrahydropyrazolo[3,4-e][1,4]diazepin-7-yl)-2-hydroxybenzoic acid]: the IC50 is 0.52 nM.

Source of the values: US20090054413A1, “Novel 5,6-Dihydropyrazolo[3,4-E] [L,4]Diazepin-4 (IH) -One Derivatives for the Treatment of Asthma and Chronic Obstructive Pulmonary Disease” (AstraZeneca AB, priority 2005, published 2009).
